Measurements taken from publication PMC12216609, “Inhibitors of eIF1A-ribosome interaction unveil uORF-dependent regulation of translation initiation and antitumor and antiviral effects” (The EMBO Journal, 2025).
Values joined by “and” are separate entries in the source; they are usually repeats but may differ in a detail not shown here. Equal values may be shown once. Read-outs that look alike come from different tables or passages of the source.

Key:
RPS10 = target: T1, RPS10 (Homo sapiens, UniProt P46783); assay type: binding
T1 construct: made in house; host or cells: E. coli BL-21

[1] = tested on: CUG/GUG vs AUG start codon luciferase reporters in HEK293T cells; assay: Near-cognate AUG starting codon fidelity reporter assay (GUG, CUG vs AUG); assay type: cell-based; conditions: for CUG vs AUG (%): CUG start codon reporter relative to AUG reporter (AUG = 100); for CUG vs AUG (%) / GUG vs AUG (%): compound at 5uM (summary head), single-experiment calculation; for GUG vs AUG (%): GUG start codon reporter relative to AUG reporter (AUG = 100); for average CUG and GUG / average CUG and GUG relative to DMSO / CUG Average / GUG Average: NUG experiment; for CUG Average: CUG vs AUG reporter; for GUG Average: GUG vs AUG reporter; for NUG (Final data, Fig. 1E): average CUG and GUG relative to DMSO, 20 µM overnight; for GUG vs AUG data (%): individual repeat; for GUG vs AUG (%) Average: summary average of repeats, DMSO control average […]
Procedure: We next considered the importance of eIF1A in controlling start codon fidelity in yeast and mammalian cells (Martin-Marcos et al, [2011]; Martin-Marcos et al, [2017]; Sehrawat et al, [2019]; She et al, [2023]) and tested how inhibition of eIF1A by 1Ais affects the initiation from near-cognate AUG. The effect of 1Ais was analyzed using firefly luciferase reporters bearing either AUG (control), CUG, or GUG as the exclusive translation initiation sites. Co-transfected GFP reporter served as an internal control for transfection efficiency.
For the near-cognate AUG Starting codon fidelity reporter assay, HEK293T cells were transfected with 100 ng of the previously described luciferase reporter constructs driven either by AUG, CUG, and GUG (Tang et al, [2017]) together with GFP expressing plasmid (20 ng) as normalizing control. Luciferase and GFP levels were determined as described above.
Appendix Figure S1: (A) HEK293T cells were transfected with Luciferase reporter genes with either CUG or AUG as their exclusive starting codon. 6 hours after transfection, cells were exposed to 1Ais, and the luminescence from all constructs was measured after overnight incubation. Bars represent the ratio between luminescence from the AUG starting codon and CUG after normalization with co-transfected GFP; Error bars represent SEM, * denotes p<0.05 (T-test comparing to DMSO control), n=≥4 independent biological replicates.

[2] = tested on: cap-proximal AUG GFP reporter in HEK293T cells; assay type: cell-based; conditions: GFP WB densitometry; 20 µM overnight; dmso 0.965946
Source text: Translation from an AUG preceded by a very short 5'UTR (less than 30 nt) is usually inefficient and frequently bypassed, resulting in initiation from a downstream AUG, a phenomenon known as leaky scanning. […] To examine the impact of 1Ais on short 5'UTR initiation, we used a GFP reporter gene containing an AUG located 16 nt downstream from the 5' end followed by a second in-frame downstream AUG (Fig. 1F; Appendix Fig. S1B). Cells were transfected with this GFP reporter gene followed by exposure to DMSO (vehicle) and 1Ais. Initiations from upstream (US) or downstream (DS) AUGs were determined by western blot (WB) with anti-GFP antibodies and the ratio between the US and DS AUG was determined.
For the analysis of translation from very short 5'UTR and Leaky scanning, HEK293T cells were transfected with a GFP (20 ng/well) reporter gene driven by a cap-proximal and downstream AUGs (Elfakess et al, [2011]) together with a luciferase reporter gene (100 ng/well) as normalizing control and treated with 20 µM of 1Ais as described above. GFP levels were determined by Western blot (WB) (GFP antibody, Abcam #ab290) and quantified by densitometry (ImageJ) and normalized to the measured luciferase activity.
HEK293T cells were transfected with the GFP reporter gene schematically shown on the top. The first
AUG is […] from the 5’ end and the downstream AUG is in the same frame. Six hours after transfection, cells were treated with 1Ais. After overnight exposure to 1Ais, GFP expression was analyzed by WB using anti -GFP antibodies.
US/DS ratio was determined by densitometry and represents the long protein expression (upstream AUG, US) vs the […]
biological replicates. (C-D) Analysis of reporter genes mRNA levels after 1Ais treatment.

[3] = tested on: IRF7 5'UTR firefly luciferase reporter in HEK293T cells; conditions: for Reference vs IRF7 (Final data, Fig. 1E): 1/Result, relative to DMSO; for LONG (summary - All), normalized to DMSO / Long: Normalized to average DMSO: Long reporter; for LONG (summary - All), normalized to DMSO / SHORT (summary - All), normalized to DMSO: individual replicates, outliers excluded, DMSO = 1; for SHORT (summary - All), normalized to DMSO / Short: Normalized to average DMSO: Short reporter; for Short: Normalized to average DMSO / Long: Normalized to average DMSO: data section, GFP-corrected, per experiment; for average ( long vs short ratio): summary - All;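 on all read-outs here: luciferase signal corrected by a co-transfected GFP reporter for transfection efficiency, read after overnight compound exposure, with Long and Short reporters differing in 5'UTR length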
[4] = read-out: IC50 (line under RPS10 binding data)
[5] = summary table, fluorescence binding assay, read-out: IC50 concentration (µM), RPS10
[6] = 20 µM, includes values excluded as outliers
[7] = raw data calculation of one experiment, GFP normalized, AUG set to 100, compound marked (20)

SMILES | RPS10 fluorescence ratio to control (RPS10; 1Ai conc. 0.25 uM) | RPS10 fluorescence ratio to control (RPS10; 1Ai conc. 0.5 uM) | RPS10 fluorescence ratio to control (RPS10; 1Ai conc. 1 uM) | RPS10 fluorescence ratio to control (RPS10; 1Ai conc. 2 uM) | RPS10 fluorescence ratio to control (RPS10; 1Ai conc. 4 uM) | RPS10 fluorescence ratio to control (RPS10; 1Ai conc. 8 uM) | RPS10 fluorescence ratio to control (RPS10; 1Ai conc. 16 uM) | RPS10 fluorescence ratio to control (RPS10; 1Ai conc. 32 uM) | RPS10 fluorescence ratio to control (RPS10; 1Ai conc. 64 uM) | RPS10 fluorescence ratio to control (RPS10; 1Ai conc. 256 uM) | IC50 (RPS10; [4]) | IC50 (RPS10; read-out: RPS10 IC50) | IC50 (RPS10; [5]) | average CUG and GUG [1] | average CUG and GUG relative to DMSO [1] | CUG Average [1] | GUG Average [1] | NUG (Final data, Fig. 1E) [1] | US/DS ratio, average [2] | Reference vs IRF7 (Final data, Fig. 1E) ([3]; 20 µM) | further results
COc1cccc(Nc2nc(-c3ccc(NC(C)=O)cc3)c(C)s2)c1 [1Ai-1869] | 0.7198 | 0.6885 | 0.6476 | 0.5996 | 0.5488 | 0.4668 | 0.3725 | 0.2785 | 0.234 | 0.2345 | 7.7 µM | 7.7 µM | 7.7 µM | 3.262 | 0.7232 | 5.139 | 1.3841 | 0.723 | 1.144 | 1.329 | CUG vs AUG (%) [1]: 5.139%; GUG vs AUG (%) [1]: 1.3841%; GUG vs AUG data (%) ([1]; compound at 5uM): 2.01% and 1.38%; GUG vs AUG (%) Average ([1]; compound at 5uM): 1.70%; LONG (summary - All), normalized to DMSO ([3]; 5 µM): 0.51 and 0.25 and 0.61; SHORT (summary - All), normalized to DMSO ([3]; 5 µM): 0.54 and 0.69 and 0.59; Short: Normalized to average DMSO ([3]; 5 µM, includes values excluded as outliers): 0.5397 and 0.69 and 0.5937; average ( long vs short ratio) ([3]; 5 µM): 0.752
O=C(CSc1nc(-c2ccccc2)cn1-c1ccccc1)NC(=O)Nc1ccccc1 [1Ai-2383] | 1.003 | 0.5095 | 0.4927 | 0.4799 | 0.3805 | 0.08815 | 0.2868 | 0.02728 | 0.2465 | 0.3391 |  |  | 0.661 µM | 5.372 | 1.191 | 8.595 | 2.149 | 1.191 | 0.4898 | 1.265 | IC50 (RPS10; fluorescence binding, read-out: RPS10 IC50): 0.7 µM; IC50 (RPS10; source data Fig. 2B, read-out: IC50 (line under RPS10 binding data)): 0.66 µM; GUG vs AUG data (%) ([1]; compound at 20uM): 2.05% and 2.35% and 1.83% and 2.36%; GUG vs AUG (%) Average ([1]; compound at 20uM): 2.15%; LONG (summary - All), normalized to DMSO ([3]; 20 µM): 0.91 and 0.57 and 0.60; SHORT (summary - All), normalized to DMSO ([3]; 20 µM): 0.93 and 0.86 and 0.76; Long: Normalized to average DMSO [3, 6]: 0.9138 and 0.5713 and 0.6011 and 0.6048; Short: Normalized to average DMSO [3, 6]: 0.9324 and 0.8573 and 0.5797 and 0.7642; average ( long vs short ratio) ([3]; 20 µM): 0.790
CCOc1cc(C(=O)Nc2ccc(Cl)c(-c3nc4ccccc4[nH]3)c2)cc(OCC)c1OCC [1Ai-5677] | 1.185 | 1.207 | 1.132 | 1.142 | 1.154 | 1.116 | 1.16 | 1.234 | 1.307 | 1.29 |  |  |  | 7.022 | 1.557 | 10.2182 | 3.825 | 1.557 | 0.4981 | 1.223 | RPS10 IC50 (RPS10; fluorescence binding): No binding; IC50 concentration (µM), RPS10 (RPS10; summary table, fluorescence binding assay): No binding; GUG vs AUG data (%) ([1]; compound at 20uM): 5.33% and 3.23% and 3.12% and 3.62%; GUG vs AUG (%) Average ([1]; compound at 20uM): 3.82%; LONG (summary - All), normalized to DMSO ([3]; 20 µM): 0.42 and 0.28 and 0.29 and 0.61; SHORT (summary - All), normalized to DMSO ([3]; 20 µM): 0.22 and 0.81 and 0.72 and 0.21; Long 5'UTR reporter luciferase activity, normalized to DMSO (=1), single replicates ([3]; compound at 20 µM, left data block (Long), source data of Fig 1C): 0.4235 and 0.2817 and 0.2949 and 0.6069; average ( long vs short ratio) ([3]; 20 µM): 0.817
COc1ccc(C=C2CSc3ccc(Cl)cc3C2=O)cc1O [1Ai-5175] | 0.6015 | 0.7077 | 1.288 | 1.156 | 1.025 | 0.4718 | 0.1497 | 0.1533 | 0.2655 | 0.2335 | 6.7 µM | 6.7 µM | 6.7 µM | 5.826 | 1.2918 | 9.011 | 2.642 | 1.292 | 1.243 | 2.369 | CUG vs AUG (%) [1]: 10.1681% and 8.512%; GUG vs AUG (%) [1]: 2.289% and 2.982%; GUG vs AUG data (%) ([1]; compound at 5uM): 2.76% and 3.14% and 2.85% and 1.82%; GUG vs AUG (%) Average ([1]; compound at 5uM): 2.64%; calculation: CUG (AUG = 100) [1, 7]: 4.394; calculation: GUG (AUG = 100) [1, 7]: 1.456; LONG (summary - All), normalized to DMSO ([3]; 5 µM): 0.41 and 0.69 and 0.67; SHORT (summary - All), normalized to DMSO ([3]; 5 µM): 1.04 and 2.35 and 0.82; Long: Normalized to average DMSO ([3]; 5 µM): 0.4067 and 0.6939 and 0.6743; average ( long vs short ratio) ([3]; 5 µM): 0.422
